Experimental findings from ChEMBL document CHEMBL2321759, “A new target for an old drug: identifying mitoxantrone as a nanomolar inhibitor of PIM1 kinase via kinome-wide selectivity modeling” (J Med Chem, 2013) are described below.

Assay [1] addresses Platelet-derived growth factor receptor beta (Mus musculus, UniProt P05622). The assay can be described thus: Inhibition of mouse PDGFRbeta expressed in SF9 insect cells by TR-FRET assay.
A short description of assay [2]: Inhibition of Mycobacterium tuberculosis protein kinase B.
Assay [3] addresses T1, Tyrosine-protein kinase BTK (Homo sapiens, UniProt Q06187). The assay can be described thus: Inhibition of BTK (unknown origin).
Another assay concerns the target Casein kinase 2 (Homo sapiens, UniProt P67870+P68400+P19784+Q8NEV1). The assay can be described thus: Inhibition of human recombinant casein kinase 2 using [gamma-32P] ATP. In kind it is protein assay.
Assay [4] relates to MV4-11. The assay can be described thus: Effect on total PIM1 level in human MV411 cells at 10 to 100 nM after 12 hrs by Western blotting analysis. It counts as functional, cell-based.
Assay [5] deals with Serine/threonine-protein kinase Chk2 (Homo sapiens) (UniProt O96017). The assay can be described thus: Inhibition of CHK2 (unknown origin) using [gamma33P]ATP assessed as residual activity at 1 uM after 120 mins by radiometric assay.
Sequence of Serine/threonine-protein kinase Chk2 (Homo sapiens) (O96017 whole entry): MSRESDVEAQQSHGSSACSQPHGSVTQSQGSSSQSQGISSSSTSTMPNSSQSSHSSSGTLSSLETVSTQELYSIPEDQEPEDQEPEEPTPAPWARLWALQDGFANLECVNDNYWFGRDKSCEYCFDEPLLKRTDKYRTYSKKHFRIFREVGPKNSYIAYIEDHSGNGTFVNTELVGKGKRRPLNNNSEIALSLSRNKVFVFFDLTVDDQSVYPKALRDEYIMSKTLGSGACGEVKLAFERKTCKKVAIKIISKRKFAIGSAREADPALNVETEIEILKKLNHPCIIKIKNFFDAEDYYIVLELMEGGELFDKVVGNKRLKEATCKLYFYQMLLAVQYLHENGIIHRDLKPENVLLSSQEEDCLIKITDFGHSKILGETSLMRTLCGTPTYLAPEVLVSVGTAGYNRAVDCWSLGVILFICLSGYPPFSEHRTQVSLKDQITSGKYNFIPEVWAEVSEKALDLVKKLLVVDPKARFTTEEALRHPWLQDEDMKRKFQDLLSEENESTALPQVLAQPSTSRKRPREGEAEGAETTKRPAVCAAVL
In assay [6] the target is T2, Serine/threonine-protein kinase pim-1 (Homo sapiens, UniProt P11309). The assay can be described thus: Inhibition of PIM1-mediated BAD phosphorylation in human MV411 cells after 12 hrs by Western blotting analysis. In kind it is cell-based. The settings on record: MV4-11.
Target sequence in this assay (P11309 whole entry, looked up): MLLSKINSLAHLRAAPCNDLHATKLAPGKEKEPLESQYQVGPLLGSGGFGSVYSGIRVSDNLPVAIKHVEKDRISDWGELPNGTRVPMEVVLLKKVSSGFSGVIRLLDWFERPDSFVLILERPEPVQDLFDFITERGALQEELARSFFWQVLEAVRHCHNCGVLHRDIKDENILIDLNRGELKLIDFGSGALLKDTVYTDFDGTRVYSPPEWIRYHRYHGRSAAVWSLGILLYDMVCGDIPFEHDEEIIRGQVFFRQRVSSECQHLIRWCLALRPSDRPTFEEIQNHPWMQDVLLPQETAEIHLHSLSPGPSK
For assay [7], the system named is MV4-11. Description: Effect on total BAD level in human MV411 cells at 10 to 100 nM after 12 hrs by Western blotting analysis. In kind it is functional, cell-based.
For assay [8], the target named is Casein kinase II subunit alpha' (Homo sapiens) (UniProt P19784). The assay can be described thus: Inhibition of CK2alpha2 (unknown origin) using [gamma33P]ATP assessed as residual activity at 1 uM after 120 mins by radiometric assay.
Sequence of Casein kinase II subunit alpha' (Homo sapiens) (P19784 whole entry, looked up): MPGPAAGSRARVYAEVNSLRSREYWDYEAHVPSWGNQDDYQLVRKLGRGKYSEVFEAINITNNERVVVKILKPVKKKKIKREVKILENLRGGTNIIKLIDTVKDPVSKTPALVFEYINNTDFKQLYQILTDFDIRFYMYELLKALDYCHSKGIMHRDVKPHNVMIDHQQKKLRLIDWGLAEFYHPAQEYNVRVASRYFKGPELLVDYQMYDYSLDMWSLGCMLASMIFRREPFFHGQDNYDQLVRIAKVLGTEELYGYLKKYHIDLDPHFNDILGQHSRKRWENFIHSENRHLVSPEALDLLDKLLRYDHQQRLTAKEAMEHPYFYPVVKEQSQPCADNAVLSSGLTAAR
Assay [9] concerns the target T2, Serine/threonine-protein kinase pim-1. The assay can be described thus: Inhibition of PIM1-mediated BAD phosphorylation in human MV411 cells at 100 nM after 12 hrs by Western blotting analysis. In kind it is cell-based. The settings on record: MV4-11.
Target sequence in this assay (P11309 whole entry, looked up): as the sequence (P11309 whole entry, looked up) above
Assay [10] has the same target. Description: Inhibition of PIM1-mediated BAD phosphorylation in human K562 cells after 12 hrs by Western blotting analysis. It counts as cell-based.
Target sequence in this assay (P11309 whole entry, looked up): as above
Assay [11] concerns the target T1, Tyrosine-protein kinase BTK. Description: Inhibition of BTK (unknown origin) using [gamma33P]ATP assessed as residual activity at 1 uM after 120 mins by radiometric assay.
Assay [12] deals with T2, Serine/threonine-protein kinase pim-1. The assay can be described thus: Inhibition of PIM1-mediated BAD phosphorylation in human K562 cells at 0.1 to 30 uM after 12 hrs by Western blotting analysis. It counts as cell-based.
Target sequence in this assay (P11309 whole entry, looked up): as above
Assay [13] shares this target. Description: Inhibition of PIM1 (unknown origin) using [gamma33P]ATP assessed as residual activity at 1 uM after 120 mins by radiometric assayATP.
Target sequence in this assay (P11309 whole entry, looked up): as above
Assay [14] concerns the target RAC-alpha serine/threonine-protein kinase (Homo sapiens) (UniProt P31749). Description: Inhibition of AKT1 (unknown origin) using [gamma33P]ATP assessed as residual activity at 1 uM after 120 mins by radiometric assay.
Assay [15] concerns the target T2, Serine/threonine-protein kinase pim-1. The assay can be described thus: Inhibition of recombinant PIM1 (unknown origin) expressed in Escherichia coli BL21(DE3) after 1 hr by HTRF assay.
Target sequence in this assay (P11309 whole entry): as the sequence (P11309 whole entry, looked up) above

Where a name gives a salt, the structure may show the parent alone. Activity calls are given as the source filed them. The calls are words filed in the database; no cut-off is given here. A value given as a limit tells only on which side of the number the result lay.

T1 sequence (Q06187 whole entry): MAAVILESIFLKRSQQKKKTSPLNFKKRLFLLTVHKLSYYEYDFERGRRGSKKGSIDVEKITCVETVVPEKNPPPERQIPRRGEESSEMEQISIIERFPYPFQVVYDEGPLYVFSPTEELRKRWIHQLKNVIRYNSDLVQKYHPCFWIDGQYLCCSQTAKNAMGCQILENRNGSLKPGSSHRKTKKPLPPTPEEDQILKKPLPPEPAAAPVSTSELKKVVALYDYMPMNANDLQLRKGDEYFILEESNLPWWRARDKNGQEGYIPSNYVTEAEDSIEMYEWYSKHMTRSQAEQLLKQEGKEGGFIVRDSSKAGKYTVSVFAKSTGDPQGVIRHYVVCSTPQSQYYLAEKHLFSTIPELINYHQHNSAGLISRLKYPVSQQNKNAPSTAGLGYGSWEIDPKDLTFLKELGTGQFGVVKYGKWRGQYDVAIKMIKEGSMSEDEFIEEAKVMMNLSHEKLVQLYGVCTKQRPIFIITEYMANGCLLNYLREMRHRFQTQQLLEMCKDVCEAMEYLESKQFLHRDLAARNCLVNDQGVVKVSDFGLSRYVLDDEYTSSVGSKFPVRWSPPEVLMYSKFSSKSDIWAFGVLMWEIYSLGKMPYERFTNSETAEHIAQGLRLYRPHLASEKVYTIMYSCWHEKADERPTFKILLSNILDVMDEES
Sequence of RAC-alpha serine/threonine-protein kinase (Homo sapiens) (P31749 whole entry): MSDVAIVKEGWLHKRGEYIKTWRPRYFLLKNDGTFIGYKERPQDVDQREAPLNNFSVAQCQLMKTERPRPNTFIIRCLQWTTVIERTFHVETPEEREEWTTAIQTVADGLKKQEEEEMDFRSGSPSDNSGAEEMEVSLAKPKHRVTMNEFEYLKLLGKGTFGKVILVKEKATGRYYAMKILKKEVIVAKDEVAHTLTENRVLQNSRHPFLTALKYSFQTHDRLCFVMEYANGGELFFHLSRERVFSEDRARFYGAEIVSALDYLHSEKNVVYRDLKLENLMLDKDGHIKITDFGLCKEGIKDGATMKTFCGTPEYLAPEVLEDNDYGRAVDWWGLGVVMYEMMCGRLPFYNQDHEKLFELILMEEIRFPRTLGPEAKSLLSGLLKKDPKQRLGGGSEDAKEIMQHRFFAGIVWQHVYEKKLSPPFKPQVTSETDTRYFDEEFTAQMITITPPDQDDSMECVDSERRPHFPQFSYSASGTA
Sequence of Platelet-derived growth factor receptor beta (P05622 whole entry): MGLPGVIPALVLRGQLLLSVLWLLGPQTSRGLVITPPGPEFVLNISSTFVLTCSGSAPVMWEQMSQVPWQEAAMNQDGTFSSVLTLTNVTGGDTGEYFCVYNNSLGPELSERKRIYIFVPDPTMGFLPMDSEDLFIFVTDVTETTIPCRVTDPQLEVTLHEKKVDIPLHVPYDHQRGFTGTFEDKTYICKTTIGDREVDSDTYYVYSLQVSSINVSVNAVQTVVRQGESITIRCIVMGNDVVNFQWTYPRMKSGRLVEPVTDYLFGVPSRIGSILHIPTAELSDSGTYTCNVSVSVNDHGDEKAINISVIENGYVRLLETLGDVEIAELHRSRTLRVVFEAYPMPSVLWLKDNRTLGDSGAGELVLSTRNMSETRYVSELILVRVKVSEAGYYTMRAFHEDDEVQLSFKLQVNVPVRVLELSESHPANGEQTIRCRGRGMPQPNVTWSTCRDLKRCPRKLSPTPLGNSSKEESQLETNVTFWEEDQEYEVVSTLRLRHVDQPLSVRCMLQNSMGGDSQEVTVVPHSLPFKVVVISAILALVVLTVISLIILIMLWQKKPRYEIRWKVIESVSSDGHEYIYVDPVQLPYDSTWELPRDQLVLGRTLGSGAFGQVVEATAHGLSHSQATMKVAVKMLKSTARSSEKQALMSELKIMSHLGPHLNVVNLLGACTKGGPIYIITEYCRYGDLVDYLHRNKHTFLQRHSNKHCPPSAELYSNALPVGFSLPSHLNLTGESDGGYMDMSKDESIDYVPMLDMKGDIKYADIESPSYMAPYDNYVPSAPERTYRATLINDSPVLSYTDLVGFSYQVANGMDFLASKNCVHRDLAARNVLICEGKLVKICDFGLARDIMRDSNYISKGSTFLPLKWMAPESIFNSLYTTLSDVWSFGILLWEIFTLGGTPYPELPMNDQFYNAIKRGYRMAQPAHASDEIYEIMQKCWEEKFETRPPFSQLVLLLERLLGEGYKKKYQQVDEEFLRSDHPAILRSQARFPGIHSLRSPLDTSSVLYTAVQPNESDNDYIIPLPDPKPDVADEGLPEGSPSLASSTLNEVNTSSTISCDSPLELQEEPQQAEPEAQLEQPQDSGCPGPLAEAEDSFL

Take `CNC(=O)c1cc(Oc2ccc(NC(=O)Nc3ccc(Cl)c(C(F)(F)F)c3)cc2)ccn1` [SORAFENIB]: the IC50 in assay [1] was less than 100 nM.

Take `O=C1c2c(O)ccc(O)c2C(=O)c2c(NCCNCCO)ccc(NCCNCCO)c21` [MITOXANTRONE]: the values for the IC50 (in assay [2]; in [3]; at Casein kinase 2) were 800 nM, 1000 nM and 660 nM, respectively.

`O=C1c2c(O)ccc(O)c2C(=O)c2c(NCCNCCO)ccc(NCCNCCO)c21`: the result in the assay with MV4-11 [4] and in the assay with MV4-11 [7] was inactive. For the same molecule, the Activity in assay [5] was 59.7%; in assay [8], 81.8%; in assay [11], 45.9%; in assay [13], 0.86%; in assay [14], 109%. Also, the inhibition result in [6] and in assay [10] was “Dose-dependent effect” in each case. In addition, the inhibition result in assay [9] and in assay [12] was “Active” throughout.

Regarding `O=C1c2c(O)ccc(O)c2C(=O)c2c(NCCNCCO)ccc(NCCNCCO)c21` [MITOXANTRONE HYDROCHLORIDE], the IC50 in [15] was 50.9 nM.
